{"source": "patent US9980943B2", "about": "“Methods of treating muscular dystrophy” (BOARD OF REGENTS OF THE NEVADA SYSTEM OF HIGHER EDUCATION, …, priority 2013, dated 2018)", "type_in_all_cases": "cell-based, mouse", "key": {"[1]": {"tested_on": "β-galactosidase in CMV-LacZ C2C12 myotubes", "assay": "CMV-LacZ secondary screen in C2C12 myotubes (β-Gal stabilizing assay)", "details": "for CMV-LACZ in Myotubes (β-galactosidase activity relative to DMSO): CMV-LacZ C2C12 myotubes, 96-well format", "excerpt": "In order to determine compounds that acted to stabilize β-gal in myogenic cells, a CMV-LacZ C2C12 cell line was used in a secondary screen. The EGFP gene from the pEGFP (Clontech) vector was replaced by LACZ PCR product with digests of the vector/PCR product performed using EcoRI (NEB) and NotI (NEB) and ligated using T4 DNA Ligase (NEB) following standard procedures to produce the CMV-LACZ vector. The LACZ gene was generated by PCR from the pBK-RSV (Stratagene) vector using primers LACZ EcoRI F- and LACZ NotI R-. The CMV-LACZ vector was then digested with AfIII (NEB) to linearize the construct, which was then transfected in C2C12 myoblasts using Lipofectamine 2000 (Invitrogen) following the manufacturer's instructions. […] Clonal lines were selected and screened for βgal levels using the myoblast FDG assay.\nThe assays were used the original 96-well format and new dose-response curves for myoblasts (N=3-6 replicates for each data point), myotubes (N=3-6 replicates for data point), and CMV-LacZ secondary assay (N=2 replicates for each data point) using concentrations of 0.5 μM, 1 μM, 5 μM, 10 μM, 20 μM, and 40 μM (Tables 9-16)."}, "[2]": {"tested_on": "α7 integrin (LacZ reporter in α7βgal+/− myoblasts)", "assay": "Myoblast α7+/LacZ integrin FDG assay (Burkin assay in myoblasts, 96-well)", "details": "for Burkin Assay in Myoblasts, value relative to DMSO / Burkin Assay in Myoblasts, signal relative to DMSO: α7+/LacZ myoblasts, 96-well"}, "[3]": {"tested_on": "α7 integrin (LacZ reporter in α7+/LacZ myotubes)", "assay": "Myotube α7 integrin FDG assay (Burkin assay in myotubes, 96-well)"}, "[4]": {"details": "Mus musculus, Myoblast, 48 h, read-out: Burkin Assay in Myoblasts, signal relative to DMSO"}, "[5]": {"details": "Mus musculus, Myotube, read-out: Burkin Assay in Myotubes, α7 integrin LacZ reporter signal relative to DMSO"}, "[6]": {"details": "5 uM, C2C12 CMV-LacZ myotubes, fold relative to DMSO"}, "[7]": {"details": "10 uM, C2C12 CMV-LacZ myotubes, fold relative to DMSO"}, "[8]": {"details": "20 uM, C2C12 CMV-LacZ myotubes, fold relative to DMSO"}, "[9]": {"details": "40 uM, C2C12 CMV-LacZ myotubes, fold relative to DMSO"}}}
{"compound": "Cc1nc2c([nH]1)OC(N)=C(C#N)C21CCN(Cc2ccccc2)CC1", "note": "[MLS000047918-01]", "values": [{"measurement": "fold induction at 5 µM", "setting": "[1]; Mus musculus, C2C12, read-out: CMV-LACZ in Myotubes, signal relative to DMSO, 5 uM, C2C12 CMV-LacZ myotubes, fold relative to DMSO", "result": 0.937}, {"measurement": "fold induction at 10 µM", "setting": "[1]; Mus musculus, C2C12, read-out: CMV-LACZ in Myotubes, signal relative to DMSO, 10 uM, C2C12 CMV-LacZ myotubes, fold relative to DMSO", "result": 0.8}, {"measurement": "fold induction at 20 µM", "setting": "[1]; Mus musculus, C2C12, read-out: CMV-LACZ in Myotubes, signal relative to DMSO, 20 uM, C2C12 CMV-LacZ myotubes, fold relative to DMSO", "result": 1.04}, {"measurement": "fold induction at 40 µM", "setting": "[1]; Mus musculus, C2C12, read-out: CMV-LACZ in Myotubes, signal relative to DMSO, 40 uM, C2C12 CMV-LacZ myotubes, fold relative to DMSO", "result": 1.05}, {"measurement": "fold induction at 0.5 µM", "setting": "[2]; [4]", "result": 0.873}, {"measurement": "fold induction at 1 µM", "setting": "[2]; [4]", "result": 0.912}, {"measurement": "fold induction at 5 µM", "setting": "[2]; [4]", "result": 0.948}, {"measurement": "fold induction at 10 µM", "setting": "[2]; [4]", "result": 1}, {"measurement": "fold induction at 20 µM", "setting": "[2]; [4]", "result": 0.803}, {"measurement": "fold induction at 40 µM", "setting": "[2]; [4]", "result": 0.78}, {"measurement": "fold induction at 0.5 µM", "setting": "[3]; [5]", "result": 1.4}, {"measurement": "fold induction at 1 µM", "setting": "[3]; [5]", "result": 0.913}, {"measurement": "fold induction at 5 µM", "setting": "[3]; [5]", "result": 0.899}, {"measurement": "fold induction at 10 µM", "setting": "[3]; [5]", "result": 0.872}, {"measurement": "fold induction at 20 µM", "setting": "[3]; [5]", "result": 0.967}, {"measurement": "fold induction at 40 µM", "setting": "[3]; [5]", "result": 0.945}]}
{"compound": "CCOc1cc(/C=C2\\C(=O)ON=C2c2ccccc2)ccc1OC", "note": "[MLS001196946-01]", "values": [{"measurement": "CMV-LACZ in Myotubes (β-galactosidase activity relative to DMSO)", "setting": "[1]; 5 uM", "result": 0.9817}, {"measurement": "CMV-LACZ in Myotubes (β-galactosidase activity relative to DMSO)", "setting": "[1]; 10 uM", "result": 1.13}, {"measurement": "CMV-LACZ in Myotubes (β-galactosidase activity relative to DMSO)", "setting": "[1]; 20 uM", "result": 2.7886}, {"measurement": "CMV-LACZ in Myotubes (β-galactosidase activity relative to DMSO)", "setting": "[1]; 40 uM", "result": 3.9614}, {"measurement": "Burkin Assay in Myoblasts, value relative to DMSO", "setting": "[2]; 0.5 uM", "result": 0.9541}, {"measurement": "Burkin Assay in Myoblasts, value relative to DMSO", "setting": "[2]; 1 uM", "result": 0.9798}, {"measurement": "Burkin Assay in Myoblasts, value relative to DMSO", "setting": "[2]; 5 uM", "result": 0.7989}, {"measurement": "Burkin Assay in Myoblasts, value relative to DMSO", "setting": "[2]; 10 uM", "result": 0.6188}, {"measurement": "Burkin Assay in Myoblasts, value relative to DMSO", "setting": "[2]; 20 uM", "result": 0.1194}, {"measurement": "Burkin Assay in Myoblasts, value relative to DMSO", "setting": "[2]; 40 uM", "result": 0.08385}, {"measurement": "Burkin Assay in Myotubes (signal relative to DMSO)", "setting": "[3]; 0.5 uM", "result": 0.9942}, {"measurement": "Burkin Assay in Myotubes (signal relative to DMSO)", "setting": "[3]; 1 uM", "result": 1.113}, {"measurement": "Burkin Assay in Myotubes (signal relative to DMSO)", "setting": "[3]; 5 uM", "result": 1.002}, {"measurement": "Burkin Assay in Myotubes (signal relative to DMSO)", "setting": "[3]; 10 uM", "result": 0.9469}, {"measurement": "Burkin Assay in Myotubes (signal relative to DMSO)", "setting": "[3]; 20 uM", "result": 0.5465}, {"measurement": "Burkin Assay in Myotubes (signal relative to DMSO)", "setting": "[3]; 40 uM", "result": 0.2832}]}
{"compound": "CC(=O)Nc1nonc1-c1nc2ccccc2n1CCC(C)C", "note": "[MLS000085522-01]", "values": [{"measurement": "CMV-LACZ in Myotubes, signal relative to DMSO", "setting": "[1]; [6]", "result": 1.092}, {"measurement": "CMV-LACZ in Myotubes, signal relative to DMSO", "setting": "[1]; [7]", "result": 0.9804}, {"measurement": "CMV-LACZ in Myotubes, signal relative to DMSO", "setting": "[1]; [8]", "result": 0.7733}, {"measurement": "CMV-LACZ in Myotubes, signal relative to DMSO", "setting": "[1]; [9]", "result": 0.9509}, {"measurement": "Burkin Assay in Myoblasts, signal relative to DMSO", "setting": "[2]; 0.5 uM", "result": 0.9927}, {"measurement": "Burkin Assay in Myoblasts, signal relative to DMSO", "setting": "[2]; 1 uM", "result": 0.872}, {"measurement": "Burkin Assay in Myoblasts, signal relative to DMSO", "setting": "[2]; 5 uM", "result": 1.118}, {"measurement": "Burkin Assay in Myoblasts, signal relative to DMSO", "setting": "[2]; 10 uM", "result": 0.9531}, {"measurement": "Burkin Assay in Myoblasts, signal relative to DMSO", "setting": "[2]; 20 uM", "result": 0.9728}, {"measurement": "Burkin Assay in Myoblasts, signal relative to DMSO", "setting": "[2]; 40 uM", "result": 0.7481}, {"measurement": "Burkin Assay in Myotubes, α7 integrin LacZ reporter signal relative to DMSO", "setting": "[3]; 0.5 uM", "result": 0.9622}, {"measurement": "Burkin Assay in Myotubes, α7 integrin LacZ reporter signal relative to DMSO", "setting": "[3]; 1 uM", "result": 0.8415}, {"measurement": "Burkin Assay in Myotubes, α7 integrin LacZ reporter signal relative to DMSO", "setting": "[3]; 5 uM", "result": 0.872}, {"measurement": "Burkin Assay in Myotubes, α7 integrin LacZ reporter signal relative to DMSO", "setting": "[3]; 10 uM", "result": 0.9249}, {"measurement": "Burkin Assay in Myotubes, α7 integrin LacZ reporter signal relative to DMSO", "setting": "[3]; 20 uM", "result": 1.029}, {"measurement": "Burkin Assay in Myotubes, α7 integrin LacZ reporter signal relative to DMSO", "setting": "[3]; 40 uM", "result": 0.556}]}
{"compound": "CCc1nnc(NC(=O)c2ccc(S(=O)(=O)NCC(C)C)cc2)s1", "note": "[MLS000027478-01]", "values": [{"measurement": "CMV-LACZ in Myotubes, signal relative to DMSO", "setting": "[1]; [6]", "result": 0.9489}, {"measurement": "CMV-LACZ in Myotubes, signal relative to DMSO", "setting": "[1]; [7]", "result": 0.924}, {"measurement": "CMV-LACZ in Myotubes, signal relative to DMSO", "setting": "[1]; [8]", "result": 0.9443}, {"measurement": "CMV-LACZ in Myotubes, signal relative to DMSO", "setting": "[1]; [9]", "result": 0.979}, {"measurement": "Burkin Assay in Myoblasts, signal relative to DMSO", "setting": "[2]; 0.5 uM", "result": 0.9552}, {"measurement": "Burkin Assay in Myoblasts, signal relative to DMSO", "setting": "[2]; 1 uM", "result": 0.9044}, {"measurement": "Burkin Assay in Myoblasts, signal relative to DMSO", "setting": "[2]; 5 uM", "result": 0.9721}, {"measurement": "Burkin Assay in Myoblasts, signal relative to DMSO", "setting": "[2]; 10 uM", "result": 0.9209}, {"measurement": "Burkin Assay in Myoblasts, signal relative to DMSO", "setting": "[2]; 20 uM", "result": 0.9145}, {"measurement": "Burkin Assay in Myoblasts, signal relative to DMSO", "setting": "[2]; 40 uM", "result": 0.816}, {"measurement": "Burkin Assay in Myotubes, α7 integrin LacZ reporter signal relative to DMSO", "setting": "[3]; 0.5 uM", "result": 1.0222}, {"measurement": "Burkin Assay in Myotubes, α7 integrin LacZ reporter signal relative to DMSO", "setting": "[3]; 1 uM", "result": 0.9043}, {"measurement": "Burkin Assay in Myotubes, α7 integrin LacZ reporter signal relative to DMSO", "setting": "[3]; 5 uM", "result": 0.984}, {"measurement": "Burkin Assay in Myotubes, α7 integrin LacZ reporter signal relative to DMSO", "setting": "[3]; 10 uM", "result": 0.9583}, {"measurement": "Burkin Assay in Myotubes, α7 integrin LacZ reporter signal relative to DMSO", "setting": "[3]; 20 uM", "result": 0.9854}, {"measurement": "Burkin Assay in Myotubes, α7 integrin LacZ reporter signal relative to DMSO", "setting": "[3]; 40 uM", "result": 0.9115}]}
